Data reported in PMC6521145 (Viruses, 2019).
Like-named read-outs stand apart in the source and are kept apart here.

What was measured:
ZIKV (H/PAN and PRV) = test: Plaque assay, ZIKV titer from infected Vero cells; type: cell-based, Zika virus; conditions: for decrease in ZIKV titer / rescue of ZIKV replication from MTX treatment: 48 h PI; for rescue of ZIKV replication during MTX treatment: 5 µM MTX with GAT medium or 0.67 mM glycine, 37.5 µM adenosine, 41.3 µM thymidine, 48 h; for rescue of ZIKV replication from MTX treatment: 50 µM co-treatment with 5 µM MTX, H/PAN and PRV MOI 0.2, Vero cells
ZIKV (H/PAN) [1] = test: Plaque assay, ZIKV titer from infected hNSCs; type: cell-based, Zika virus
ZIKV = conditions: human brain microvascular endothelial cells; read-out: inhibitory concentration 50 (IC50) against ZIKV; cited from earlier work
[2] = system: human brain microvascular endothelial cells; conditions: read-out: host cytotoxicity (CC50); cited from earlier work
[3] = human
ZIKV (H/PAN) [4] = test: Immunofluorescence imaging of ZIKV envelope protein in infected hNSCs; conditions: Zika virus, read-out: IC50 (µM) Values of MTX, Immunofluorescence
[5] = human, hNSCs
ZIKV (H/PAN) [6] = test: Immunofluorescence imaging of ZIKV envelope protein in infected Vero cells
Vero cells [7] = conditions: for rescue of cell viability during MTX treatment (CTG): 5 µM MTX with GAT medium or 0.67 mM glycine, 37.5 µM adenosine, 41.3 µM thymidine
Vero cells [8] = conditions: for rescue of cell viability during MTX treatment (CTF): 5 µM MTX with 0.67 mM glycine, 37.5 µM adenosine or 41.3 µM thymidine, uninfected Vero cells
hNSCs = conditions: hNSCs
[9] = GAT medium or 37.5 µM adenosine without MTX

Question: With `CN(Cc1cnc2nc(N)nc(N)c2n1)c1ccc(C(=O)N[C@@H](CCC(=O)O)C(=O)O)cc1` [MTX, methotrexate] as the compound, how does the “decrease in ZIKV titer” value (ZIKV (H/PAN and PRV); 5 µM MTX, H/PAN and PRV both MOI 0.2, Vero cells) read?
Answer: approximately 10 fold

Question: What about the “ZIKV replication at 96 h PI compared to DMSO control” value (ZIKV (H/PAN and PRV); 5 µM MTX, Vero cells, 96 h PI) of the same compound?
Answer: resumed

Question: What about the “decrease in ZIKV titer” value (ZIKV (H/PAN and PRV); 6.25 µM MTX, H/PAN MOI 0.2, Vero cells) of the same compound?
Answer: approximately 10 fold

Question: What about the “ZIKV replication in infected hNSCs” value (ZIKV (H/PAN) [1]; 5 μM MTX, hNSCs) of the same compound?
Answer: reduced ZIKV replication

Question: What about the IC50 (ZIKV) of the same compound?
Answer: 0.28 µM

Question: What about the CC50 [2] of the same compound?
Answer: > 10 µM

Question: What about the CC50 [3] of the same compound?
Answer: 0.0163 µM

Question: What about the IC50 (ZIKV (H/PAN) [4]) of the same compound?
Answer: 0.334 µM

Question: And the CC50 [5]?
Answer: > 100 µM

Question: What about the “ZIKV envelope protein synthesis” value (ZIKV (H/PAN) [6]; 5 µM MTX, H/PAN MOI 0.2, Vero cells, 48 h PI) of the same compound?
Answer: reduced

Question: And the IC50 (ZIKV (H/PAN) [6]; Zika virus, Vero, read-out: IC50 (µM) Values of MTX, Immunofluorescence)?
Answer: 0.245 µM

Question: Which “rescue of ZIKV replication during MTX treatment” value (ZIKV (H/PAN and PRV); H/PAN MOI 0.2, Vero cells) does the source give for `Nc1ncnc2c1ncn2[C@@H]1O[C@H](CO)[C@@H](O)[C@H]1O` [adenosine] here?
Answer: rescued

Question: And the “rescue of cell viability during MTX treatment (CTG)” value (Vero cells [7]; uninfected Vero cells)?
Answer: could

Question: And the “viability of Vero cells, substance alone (CTG)” value (Vero cells [7]; [9])?
Answer: did not alter

Question: What about the “rescue of cell viability during MTX treatment (CTF)” value (Vero cells [8]) of the same compound?
Answer: could

Question: What about the “viability of Vero cells, substance alone (CTF)” value (Vero cells [8]; [9]) of the same compound?
Answer: did not alter

Question: With `Nc1nc(=O)c2nc(CNc3ccc(C(=O)N[C@@H](CCC(=O)O)C(=O)O)cc3)cnc2[nH]1` [folic acid] as the compound, how does the “rescue of ZIKV replication from MTX treatment” value (ZIKV (H/PAN and PRV)) read?
Answer: could not rescue

Question: Which “rescue of cell viability during MTX treatment (CTG)” value (Vero cells [7]; uninfected Vero cells) does the source give for `NCC(=O)O` [glycine] here?
Answer: could not rescue

Question: What about the “rescue of cell viability during MTX treatment (CTF)” value (Vero cells [8]) of the same compound?
Answer: could not rescue

Question: With `Nc1nc2c(c(=O)[nH]1)N(C=O)C(CNc1ccc(C(=O)N[C@@H](CCC(=O)O)C(=O)O)cc1)CN2` (stereo partly shown) [leucovorin] as the compound, how does the “rescue of ZIKV replication from MTX treatment” value (ZIKV (H/PAN and PRV)) read?
Answer: rescued

Question: And the “rescue of ZIKV replication during MTX treatment” value (ZIKV (H/PAN) [1]; 50 µM with 5 µM MTX, H/PAN MOI 0.1, hNSCs)?
Answer: same rescue effect

Question: And the “cell viability, substance alone (CTG)” value (Vero cells [7]; 50 µM leucovorin vs water vehicle, Vero cells)?
Answer: No significant difference

Question: And the “rescue of cell viability after MTX treatment (CTG)” value (Vero cells [7]; 50 µM with 5 µM MTX, uninfected Vero cells)?
Answer: could rescue

Question: What about the “cell viability, substance alone (CTG)” value (hNSCs; 50 µM leucovorin vs water vehicle) of the same compound?
Answer: No significant difference

Question: What about the “rescue of cell viability during MTX treatment (CTG)” value (hNSCs; 50 µM with 5 µM MTX) of the same compound?
Answer: same rescue effect

Question: What does the source list for `Cc1cn([C@H]2C[C@H](O)[C@@H](CO)O2)c(=O)[nH]c1=O` [thymidine]?
Answer: rescue of ZIKV replication during MTX treatment (ZIKV (H/PAN and PRV); H/PAN MOI 0.2, Vero cells): could not rescue; rescue of cell viability during MTX treatment (CTG) (Vero cells [7]; uninfected Vero cells): could not rescue; rescue of cell viability during MTX treatment (CTF) (Vero cells [8]): could not rescue
